From patent publication US20220143222A1, “SUBCUTANEOUS AND INTRAMUSCULAR ADMINISTRATION OF PYRAZINE COMPOUNDS” (MediBeacon Inc., priority 2020, published 2022)

How the values were obtained:
[1] = MB-102 pig plasma concentration after IV dosing; assay type: in vivo; settings: pig 48019, IV, 3.2 mpk
Text: (§1) Juvenile Yorkshire pigs weighing approximately 25 kg were anesthetized, their body temperature stabilized, and an IV port surgically placed. A region approximately half-way along the line between the hip and knee joint was selected as the injection site and prepared by cleaning the skin and removing any exposed hair by shaving the selected area at least twice. Similarly, the site where two Quantum Leap fluorescent sensors (disclosed in U.S. Pat. No. 10,548,521) were to be positioned (chest) was prepared by washing and shaving. After the skin was dry the sensors were attached with commercially available skin adhesive and background skin auto-fluorescence measurements were recorded. After about 20 minutes of background fluorescence collection the subject animal was dosed either intravenously (animal 48019) or subcutaneously (animals 52771, 53701 09802, or 1539) or intramuscularly (09801) with PBS-1× formulated MB-102 at 3.2 mg/kg. Injection of the appropriate volume took place over about a minute. […] At this point glomerular elimination of MB-102 by the kidneys led to a decrease of fluorescence signal over time. Blood samples (1.5 mL) were taken immediately prior to the introduction of MB-102 (0 minutes) and at 15 minute intervals throughout the procedure. Blood was collected in BD vacutainer K2EDTA tubes, spun to plasma and stored at −80° C. until analyzed. Subsequently, the processed plasma samples were thawed, diluted with PBS-1× and analyzed by HPLC or UPLC and the concentration of MB-102 determined using standard analytical techniques. Further details for each animal are provided in the examples that follow.
Subject pig, 48019, the control animal, was prepared as in Example 6 and dosed IV using 8.2 mL of 11.8 mg/mL MB-102 in PBS-1× (bolus over about 2 min).

[2] = Storage of concentrated MB-102 salt solution at 4° C. (precipitation); assay type: physicochemical; settings: sodium salt, 300 mg per mL water (w/v), 4° C. overnight
Experimental: MB-102 (0.300 g, 0.81 mmol), was placed in a vial (4.0 mL). Water was added (0.8 mL, D.I.) and the mixture sonicated for a brief period of time. To the mixture was added aqueous 6.25 N NaOH (2 equivalents, 1.62 mmol, 0.24 mL, added in portions; 0.020 mL×12 to effect solution) with stirring and brief periods of sonication. […] The final concentration was 300 mg (2R,2′R)-2,2′-((3,6-diaminopyrazine-2,5-dicarbonyl)bis(azanediyl))bis(3-hydroxypropanoic acid), MB-102 per mL water (w/v).
MB-102 (0.30 g, 0.81 mmol) was weighed into a 5 mL v-vial equipped with a Teflon-covered magnetic spin vane. Choline hydroxide in water (Aldrich, 0.43 g of 46 wt %, 1.62 mmol) was added portion-wise with stirring until a solution was obtained. The total weight of the solution was 0.73 g or 64.2 wt % MB-102 di-choline salt (MW: 578.6).

[3] = Transdermal fluorescence signal at the chest after injection; assay type: in vivo, pig
Text: as §1
A sterile Mesoderm needle pack was obtained. The needle array featured five (5), 4 mm×30 gauge (0.30 mm dia) luer-hub needles arranged four (4) in a circular, symmetrical pattern (30 mm diameter) about a central needle and were attached via a distribution channel and a second luer-hub to a primary source syringe (3 mL in total deliverable volume). MB-102 API was formulated as 60 mg/mL of sodium salt in 1×PBS and placed in 5 mL serum cap vials. Immediately prior to dosing, the primary syringe was filled with a slight excess of the required amount of formulated MB-102 to achieve 3.2 mg/kg and the needle cap replaced until the subject animal and fluorescence monitor were ready for the experiment to begin and the injection initiated. Subject pig 52771 was dosed with 1.2 mL of MB-102 formulated in PBS-1× (3.2 mg/kg). […] Subject animal fluorescence was obtained during the entire course of the experiment (8 hrs) and blood samples were collected every 15 minutes, processed and stored at −80° C. Comparison of IV MB-102 plasma concentration versus time and subcutaneous MB-102 (both at 3.2 mg/kg dose) plasma concentration versus time are shown in FIG. 1.
Experimental animal Yorkshire pig, 53701, was subject to subcutaneous (subQ) administration of MB-102 as described in Example 8. […] Plasma sampling was conducted as described in Example 8 and the results (Table 1) are plotted in FIG. 1.
Experimental animal Yorkshire pig, 09802, was subject to subcutaneous (subQ) administration of MB-102 using a single needle in the same protocol as Example 8 but substituting a 2 mL syringe equipped with a single 4 mm×30 g needle. […] Plasma sampling was conducted as described in Example 8 and the results (Table 1) are plotted in FIG. 1.
Experimental animal Yorkshire pig, 09801, was subject to Intramuscular (IM) administration of MB-102 using substantially the same procedure as Example 8, but substituting a 2 mL syringe equipped with a single 13 mm×27 g needle. […] Blood sampling and processing was as described in Example 8 and the results (Table 1) are plotted in FIG. 6.
Experimental animal Yorkshire pig, 1539, was subject to subcutaneous (subQ) administration of MB-102 using a single needle in the same protocol as Example 10. […]

SMILES: Nc1nc(C(=O)N[C@H](CO)C(=O)O)c(N)nc1C(=O)N[C@H](CO)C(=O)O [MB-102, 3,6-diamino-2,5-bis{N-[(1R)-1-carboxy-2-hydroxyethyl]carbamoyl}pyrazine]
- concentration at 15 min ([1]; Yorkshire, plasma, 3.2 mg/kg, 15 min, read-out: MB-102 Pig Plasma Conc.): 13000 ng/mL
- concentration at 30 min ([1]; Yorkshire, plasma, 3.2 mg/kg, 30 min, read-out: MB-102 Pig Plasma Conc.): 9200 ng/mL
- concentration at 45 min ([1]; Yorkshire, plasma, 3.2 mg/kg, 45 min, read-out: MB-102 Pig Plasma Conc.): 7830 ng/mL
- concentration at 60 min ([1]; Yorkshire, plasma, 3.2 mg/kg, 60 min, read-out: MB-102 Pig Plasma Conc.): 5880 ng/mL
- concentration at 75 min ([1]; Yorkshire, plasma, 3.2 mg/kg, 75 min, read-out: MB-102 Pig Plasma Conc.): 5430 ng/mL
- concentration at 90 min ([1]; Yorkshire, plasma, 3.2 mg/kg, 90 min, read-out: MB-102 Pig Plasma Conc.): 4680 ng/mL
- concentration at 105 min ([1]; Yorkshire, plasma, 3.2 mg/kg, 105 min, read-out: MB-102 Pig Plasma Conc.): 4000 ng/mL
- concentration at 120 min ([1]; Yorkshire, plasma, 3.2 mg/kg, 120 min, read-out: MB-102 Pig Plasma Conc.): 3340 ng/mL
- concentration at 135 min ([1]; Yorkshire, plasma, 3.2 mg/kg, 135 min, read-out: MB-102 Pig Plasma Conc.): 3250 ng/mL
- concentration at 150 min ([1]; Yorkshire, plasma, 3.2 mg/kg, 150 min, read-out: MB-102 Pig Plasma Conc.): 2700 ng/mL
- concentration at 165 min ([1]; Yorkshire, plasma, 3.2 mg/kg, 165 min, read-out: MB-102 Pig Plasma Conc.): 2410 ng/mL
- concentration at 180 min ([1]; Yorkshire, plasma, 3.2 mg/kg, 180 min, read-out: MB-102 Pig Plasma Conc.): 2200 ng/mL
- concentration at 195 min ([1]; Yorkshire, plasma, 3.2 mg/kg, 195 min, read-out: MB-102 Pig Plasma Conc.): 2000 ng/mL
- concentration at 210 min ([1]; Yorkshire, plasma, 3.2 mg/kg, 210 min, read-out: MB-102 Pig Plasma Conc.): 1910 ng/mL
- concentration at 225 min ([1]; Yorkshire, plasma, 3.2 mg/kg, 225 min, read-out: MB-102 Pig Plasma Conc.): 1690 ng/mL
- concentration at 240 min ([1]; Yorkshire, plasma, 3.2 mg/kg, 240 min, read-out: MB-102 Pig Plasma Conc.): 1510 ng/mL
- concentration at 255 min ([1]; Yorkshire, plasma, 3.2 mg/kg, 255 min, read-out: MB-102 Pig Plasma Conc.): 1400 ng/mL
- concentration at 270 min ([1]; Yorkshire, plasma, 3.2 mg/kg, 270 min, read-out: MB-102 Pig Plasma Conc.): 1320 ng/mL
- concentration at 285 min ([1]; Yorkshire, plasma, 3.2 mg/kg, 285 min, read-out: MB-102 Pig Plasma Conc.): 1140 ng/mL
- concentration at 300 min ([1]; Yorkshire, plasma, 3.2 mg/kg, 300 min, read-out: MB-102 Pig Plasma Conc.): 1110 ng/mL
- concentration at 315 min ([1]; Yorkshire, plasma, 3.2 mg/kg, 315 min, read-out: MB-102 Pig Plasma Conc.): 1000 ng/mL
- concentration at 330 min ([1]; Yorkshire, plasma, 3.2 mg/kg, 330 min, read-out: MB-102 Pig Plasma Conc.): 917 ng/mL
- concentration at 345 min ([1]; Yorkshire, plasma, 3.2 mg/kg, 345 min, read-out: MB-102 Pig Plasma Conc.): 859 ng/mL
- concentration at 360 min ([1]; Yorkshire, plasma, 3.2 mg/kg, 360 min, read-out: MB-102 Pig Plasma Conc.): 819 ng/mL
- SUM (plasma conc. over time) ([1]; 15-360 min): 1,188,637 ng/mL*min
- precipitate formation on storage [2]: no precipitate formation
- time until fluorescence signal first observed ([3]; pig 1539, single needle subcutaneous): after a few minutes
- time until fluorescence signal first observed ([3]; pig 09801, single needle intramuscular): after a few minutes
- time until fluorescence signal first observed ([3]; pig 09802, single needle subcutaneous): after a few minutes
- time until transdermal fluorescent signal detectable ([3]; pig 52771, multi-needle subcutaneous, 3.2 mg/kg): Within a few minutes
- time until fluorescence signal first observed ([3]; pig 53701, multi-needle subcutaneous): after a few minutes
- time until fluorescent skin signal at the chest observed ([3]; pigs, 3.2 mg/kg IV, subcutaneous or intramuscular, typical): within several minutes post injection
